Test results from PubChem BioAssay AID274 (DTP/NCI, 2004).
“And” between values parts separate entries of the source, which are not always exact repeats. Equal values may be shown once. Inconclusive results and toxic doses are left out.

Tested on: BDF1 mice, Lewis lung carcinoma iv, survival T/C
Assay: NCI In Vivo Anticancer Drug Screen. Data for tumor model Lewis Lung Carcinoma (intravenous) in B6D2F1 (BDF1) mice
Settings: endpoint: median survival time, higher = longer survival
Protocol: The antitumor activity of compounds was measured in mice bearing transplantable tumors. Survival or tumor size were measured and the results are expressed as the measurement made in the treated group (T) divided by the measurement made in the vehicle treated control group (C). The tumor model used in this assay is Lewis Lung Carcinoma (intravenous) in B6D2F1 (BDF1) mice

[1] = dose: 50.0 mg/kg/injection, schedule: Q01DX009 (ip), vehicle: saline with Tween-80
[2] = dose: 100.0 mg/kg/injection, schedule: Q01DX009 (ip), vehicle: saline with Tween-80
[3] = dose: 200.0 mg/kg/injection, schedule: Q01DX009 (ip), vehicle: saline with Tween-80
[4] = dose: 25.0 mg/kg/injection, schedule: Q01DX009 (ip), vehicle: water
[5] = dose: 50.0 mg/kg/injection, schedule: Q01DX009 (ip), vehicle: water
[6] = dose: 100.0 mg/kg/injection, schedule: Q01DX009 (ip), vehicle: water
[7] = dose: 6.25 mg/kg/injection, schedule: Q01DX009 (ip), vehicle: saline with Tween-80
[8] = dose: 25.0 mg/kg/injection, schedule: Q01DX009 (ip), vehicle: saline with Tween-80
[9] = dose: 12.5 mg/kg/injection, schedule: Q01DX009 (ip), vehicle: Klucel (hydroxypropylcellulose) (HPC)
[10] = dose: 25.0 mg/kg/injection, schedule: Q01DX009 (ip), vehicle: Klucel (hydroxypropylcellulose) (HPC)
[11] = dose: 50.0 mg/kg/injection, schedule: Q01DX009 (ip), vehicle: Klucel (hydroxypropylcellulose) (HPC)
[12] = dose: 25.0 mg/kg/injection, schedule: Q01DX009 (ip), vehicle: saline
[13] = dose: 50.0 mg/kg/injection, schedule: Q01DX009 (ip), vehicle: saline
[14] = dose: 100.0 mg/kg/injection, schedule: Q01DX009 (ip), vehicle: saline

How did the T/C (dose: 0.06 mg/kg/injection, schedule: Q01DX009 (ip), vehicle: saline with Tween-80) turn out when COC(C(=O)C(O)C(C)O)C1CC2C=C3C=C(OC4CC(OC5CC(O)C(OC)C(C)O5)C(OC(C)=O)C(C)O4)C(C)C(=O)C3=C(O)C2=C(O)C1OC1CC(OC2CC(OC3CC(C)(O)C(O)C(C)O3)C(O)C(C)O2)C(O)C(C)O1 (configuration not stated) was run?
The T/C was 96 % of control.

What about the T/C (dose: 0.13 mg/kg/injection, schedule: Q01DX009 (ip), vehicle: saline with Tween-80) of the same compound?
The T/C was 101 % of control.

And the T/C (dose: 0.25 mg/kg/injection, schedule: Q01DX009 (ip), vehicle: saline with Tween-80)?
The T/C was 114 % of control.

What about the T/C (dose: 0.5 mg/kg/injection, schedule: Q01DX009 (ip), vehicle: saline with Tween-80) of the same compound?
Its T/C is 104 % of control.

What about the T/C (dose: 1.0 mg/kg/injection, schedule: Q01DX009 (ip), vehicle: saline with Tween-80) of the same compound?
Its T/C is 101 % of control.

What about the T/C (dose: 2.0 mg/kg/injection, schedule: Q01DX009 (ip), vehicle: saline with Tween-80) of the same compound?
The T/C was 92 % of control.

For NC(=S)n1cccn1, which T/C [1] is on record?
The T/C was 99 % of control.

And the T/C [2]?
The T/C was 94 % of control.

What about the T/C [3] of the same compound?
Its T/C is 103 % of control.

O=C(NO)c1cc(O)c(O)c(O)c1 was tested. Which T/C [4] did it give?
Its T/C is 100 % of control.

And the T/C [5]?
Its T/C is 100 % of control.

And the T/C [6]?
The T/C was 97 % of control.

And the T/C (dose: 200.0 mg/kg/injection, schedule: Q01DX009 (ip), vehicle: water)?
Its T/C is 97 % of control.

Which results are given for CC[C@]1(O)C[C@H]2CN(CCc3c([nH]c4ccccc34)[C@@](C(=O)OC)(c3cc4c(cc3OC)N(C)[C@H]3[C@@](O)(C(=O)OC)[C@H](OC(C)=O)[C@]5(CC)C=CCN6CC[C@]43[C@@H]65)C2)C1?
T/C (dose: 0.6 mg/kg/injection, schedule: Q04DX003 (ip), vehicle: saline): 106 % of control; T/C (dose: 125.0 micrograms/kg/injection, schedule: Q04DX003 (ip), vehicle: saline): 93 % of control (2×) and 102 % of control; T/C (dose: 250.0 micrograms/kg/injection, schedule: Q04DX003 (ip), vehicle: saline): 92 % of control (2×) and 95 % of control; T/C (dose: 360.0 micrograms/kg/injection, schedule: Q01DX009 (ip), vehicle: saline): 111 % of control; T/C (dose: 500.0 micrograms/kg/injection, schedule: Q04DX003 (ip), vehicle: saline): 92 % of control (2×) and 95 % of control; T/C (dose: 600.0 micrograms/kg/injection, schedule: Q01DX009 (ip), vehicle: saline): 92 % of control

How did the T/C (dose: 0.5 mg/kg/injection, schedule: Q01DX009 (ip), vehicle: saline) turn out when N[C@H](C(=O)O)[C@@H]1CC(Cl)=NO1 was run?
The T/C was 124 % of control.

What about the T/C (dose: 1.0 mg/kg/injection, schedule: Q01DX009 (ip), vehicle: saline) of the same compound?
The T/C was 103 % of control.

What about the T/C (dose: 2.0 mg/kg/injection, schedule: Q01DX009 (ip), vehicle: saline) of the same compound?
The T/C was 111 % of control.

And the T/C (dose: 4.0 mg/kg/injection, schedule: Q01DX009 (ip), vehicle: saline)?
The T/C was 115 % of control.

For Nc1nnc[se]1, which T/C (dose: 3.12 mg/kg/injection, schedule: Q01DX009 (ip), vehicle: saline with Tween-80) is on record?
Its T/C is 103 % of control.

What about the T/C [7] of the same compound?
The T/C was 111 % of control.

What about the T/C [8] of the same compound?
The T/C was 118 % of control.

For [N-]=[N+]=C1N=CN=C1c1ncn[nH]1, which T/C (dose: 3.12 mg/kg/injection, schedule: Q01DX009 (ip), vehicle: Klucel (hydroxypropylcellulose) (HPC)) is on record?
Its T/C is 98 % of control.

What about the T/C (dose: 6.25 mg/kg/injection, schedule: Q01DX009 (ip), vehicle: Klucel (hydroxypropylcellulose) (HPC)) of the same compound?
Its T/C is 100 % of control.

What about the T/C [9] of the same compound?
Its T/C is 95 % of control.

And the T/C [10]?
The T/C was 120 % of control.

And the T/C [11]?
Its T/C is 97 % of control.

Which results are given for [Cl][Pt+2][Cl].[NH-]CC1(C[NH-])CCCCC1?
T/C (dose: 1.5 mg/kg/injection, schedule: Q01DX009 (ip), vehicle: saline): 96 % of control; T/C (dose: 3.0 mg/kg/injection, schedule: Q01DX009 (ip), vehicle: saline): 96 % of control; T/C (dose: 6.0 mg/kg/injection, schedule: Q01DX009 (ip), vehicle: saline): 102 % of control

What does the source list for NC(N)=NC(N)=Nc1ccc(-c2ccc(N=C(N)N=C(N)N)cc2)cc1?
T/C (dose: 0.78 mg/kg/injection, schedule: Q01DX009 (ip), vehicle: saline with Tween-80): 110 % of control; T/C (dose: 1.56 mg/kg/injection, schedule: Q01DX009 (ip), vehicle: saline with Tween-80): 110 % of control; T/C (dose: 3.13 mg/kg/injection, schedule: Q01DX009 (ip), vehicle: saline with Tween-80): 99 % of control; T/C [7]: 90 % of control; T/C (dose: 12.5 mg/kg/injection, schedule: Q01DX009 (ip), vehicle: saline with Tween-80): 113 % of control

What does the source list for CN(C)/N=N/c1nc[nH]c1C(N)=O?
T/C (dose: 16.0 mg/kg/injection, schedule: Q01DX009 (ip), vehicle: Klucel (hydroxypropylcellulose) (HPC)): 102 % of control; T/C [10]: 150 % of control; T/C (dose: 32.0 mg/kg/injection, schedule: Q01DX009 (ip), vehicle: Klucel (hydroxypropylcellulose) (HPC)): 109 % of control; T/C [11]: 118 % of control; T/C (dose: 128.0 mg/kg/injection, schedule: Q01DX009 (ip), vehicle: Klucel (hydroxypropylcellulose) (HPC)): 117 % of control; T/C (dose: 256.0 mg/kg/injection, schedule: Q01DX009 (ip), vehicle: Klucel (hydroxypropylcellulose) (HPC)): 123 % of control

Which T/C [9] does the source give for Cc1ccc(NCC2(/N=C/c3ccccc3)OC(CO)C(O)C2O)cc1 (configuration not stated) here?
The T/C was 103 % of control.

And the T/C [10]?
The T/C was 95 % of control.

And the T/C [11]?
Its T/C is 100 % of control.

And the T/C (dose: 100.0 mg/kg/injection, schedule: Q01DX009 (ip), vehicle: Klucel (hydroxypropylcellulose) (HPC))?
The T/C was 99 % of control.

And the T/C (dose: 200.0 mg/kg/injection, schedule: Q01DX009 (ip), vehicle: Klucel (hydroxypropylcellulose) (HPC))?
The T/C was 96 % of control.

And the T/C (dose: 400.0 mg/kg/injection, schedule: Q01DX009 (ip), vehicle: Klucel (hydroxypropylcellulose) (HPC))?
The T/C was 86 % of control.

CC(=O)N(C)O was tested. Which T/C [8] did it give?
The T/C was 102 % of control.

What about the T/C [1] of the same compound?
Its T/C is 90 % of control.

And the T/C [2]?
Its T/C is 98 % of control.

And the T/C [3]?
Its T/C is 95 % of control.

Which results are given for CC(=O)NC(C=O)OCC=O (configuration not stated)?
T/C (dose: 6.25 mg/kg/injection, schedule: Q01DX009 (ip), vehicle: water): 101 % of control; T/C (dose: 12.5 mg/kg/injection, schedule: Q01DX009 (ip), vehicle: water): 110 % of control; T/C [4]: 102 % of control; T/C [5]: 111 % of control; T/C [6]: 106 % of control

Which results are given for CCN1C[C@]2(COC)[C@H](O)C[C@H](OC)[C@]34C1[C@H]([C@H](OC)[C@H]23)[C@]1(OC(C)=O)[C@H]2[C@@H](OC(=O)c3ccccc3)[C@](O)(C[C@H]24)[C@@H](OC)[C@@H]1O?
T/C (dose: 0.03 mg/kg/injection, schedule: Q01DX009 (ip), vehicle: Klucel (hydroxypropylcellulose) (HPC)): 108 % of control; T/C (dose: 0.06 mg/kg/injection, schedule: Q01DX009 (ip), vehicle: Klucel (hydroxypropylcellulose) (HPC)): 107 % of control; T/C (dose: 0.13 mg/kg/injection, schedule: Q01DX009 (ip), vehicle: Klucel (hydroxypropylcellulose) (HPC)): 99 % of control

What does the source list for OCCCN1CCCCC1CO (configuration not stated)?
T/C (dose: 12.5 mg/kg/injection, schedule: Q01DX009 (ip), vehicle: saline): 100 % of control and 107 % of control; T/C [12]: 98 % of control and 110 % of control; T/C [13]: 97 % of control and 90 % of control; T/C [14]: 91 % of control and 106 % of control; T/C (dose: 200.0 mg/kg/injection, schedule: Q01DX009 (ip), vehicle: saline): 100 % of control and 107 % of control; T/C (dose: 400.0 mg/kg/injection, schedule: Q01DX009 (ip), vehicle: saline): 95 % of control and 110 % of control

What does the source list for CCC(C)n1ncc2c(N(C)C)ncnc21 (configuration not stated)?
T/C [12]: 102 % of control; T/C [13]: 98 % of control

How did the T/C (dose: 64.8 mg/kg/injection, schedule: Q04DX003 (ip), vehicle: Klucel (hydroxypropylcellulose) (HPC)) turn out when CC(CN1CC(=O)NC(=O)C1)N1CC(=O)NC(=O)C1 (configuration not stated) was run?
Its T/C is 110 % of control and 112 % of control and 119 % of control.

What about the T/C (dose: 108.0 mg/kg/injection, schedule: Q04DX003 (ip), vehicle: Klucel (hydroxypropylcellulose) (HPC)) of the same compound?
Its T/C is 111 % of control and 114 % of control.

What about the T/C (dose: 300.0 mg/kg/injection, schedule: Q04DX003 (ip), vehicle: Klucel (hydroxypropylcellulose) (HPC)) of the same compound?
The T/C was 154 % of control and 178 % of control.

What does the source list for CC(C)n1cc2c(N)ncnc2n1?
T/C [12]: 107 % of control; T/C [13]: 112 % of control; T/C [14]: 117 % of control
